Measured values as given in patent US20250302781A1, “METHOD FOR PRETREATING RELAPSING CANCER” (priority 2022, published 2025).

What was measured:
WSU-NHL cell line = assay: WST 1 colorimetric cell proliferation assay, WSU-NHL cell line; type: cell-based, human; settings: for effect of valproic acid pretreatment on cell proliferation (percent growth of treated cells): 48 h pretreatment 1 mM valproic acid
Procedure: (§1) In this example the combined effect of valproic acid and three different compounds as well as the single treatment on the growth of two cell lines were measured by WST 1 assay.
(§2) The cell lines used where: • SU DHL 8: human B cell lymphoma, and • WSU NHL: human B cell lymphoma
(§3) The WST 1 colorimetric assay comprised providing suspended cells (5000 cells/well) in the wells of a well plate. Tetrazolium salt (WST 1) was added to the cells and thereby colored the fluid in the wells red. Live cells reduce the tetrazolium salt via intermediate electron acceptors and forms a formazan product and the fluid in the cells turn yellow. The extent of color change reflects the proliferation of the cells and is read out as optical absorbance at 420 nm. Both cell lines were determined to be able to tolerate concentrations of up to 1% Dimethyl sulfoxide (DMSO), and this DMSO concentration was used as negative control. Additionally, 10% DMSO was used as positive control.
(§4) The cells of each cell line were incubated in a pretreatment step with 1 mM valproic acid for 48 hours followed by a treatment step with the respective compound for 24 or 48 hours, as shown in table 1 below: […]

[1] = system: SU-DHL cell line (SU DHL 8); assay: WST 1 colorimetric cell proliferation assay, SU-DHL cell line; type: cell-based, human; settings: for effect of valproic acid pretreatment on cell proliferation (percent growth of treated cells): 48 h pretreatment 1 mM valproic acid
Procedure: as §1, §2
as §3, with “Both cell lines were determined to be able to tolerate concentrations of up to 1% Dimethyl sulfoxide (DMSO), and this DMSO concentration was used as negative control.” left out
as §4

[2] = FIG. 2B, 5 μM of compound 48 h after 48 h 1 mM valproic acid, normalized to untreated control cells

Structure (SMILES): Cn1c(CCCC(=O)O)nc2cc(N(CCCl)CCCl)ccc21 [bendamustine, 1H-Benzimidazole-2-butanoic acid, 5-[bis(2-chloroethyl)amino]-1-methyl-]
- effect on cell proliferation after valproic acid pretreatment (WSU-NHL cell line; FIG. 1B, 5 μM bendamustine 24 h after 48 h 1 mM valproic acid, normalized to untreated control cells): Especially significant effects
- effect on cell proliferation after valproic acid pretreatment (WSU-NHL cell line; [2]): Especially significant effects
- cell proliferation, combination with VPA ([1]; FIG. 4A, 25 μM bendamustine 48 h after 48 h 1 mM VPA, normalized to 1/DMSO treated cells): killed all cancer cells

Structure (SMILES): N.N.O=C([O-])C1(C(=O)[O-])CCC1.[Pt+2] [carboplatin, Platinum, diammine[1,1-cyclobutanedicarboxylato(2-)-KO,KO″ ]-, (SP-4-2)-]
- effect on cell proliferation after valproic acid pretreatment (WSU-NHL cell line; [2]): Especially significant effects
- cells left alive, combination with VPA ([1]; FIG. 4B, 5 μM carboplatin 48 h after 48 h 1 mM VPA, normalized to untreated control cells): about 10 cells
- cells left alive, combination with VPA ([1]; FIG. 4B, 25 μM carboplatin 48 h after 48 h 1 mM VPA, normalized to untreated control cells): about 10 cells

Structure (SMILES): Nc1ccn([C@@H]2O[C@H](CO)[C@@H](O)C2(F)F)c(=O)n1 [gemcitabine, Cytidine, 2′-deoxy-2′,2′-difluoro-]
- effect on cell proliferation after valproic acid pretreatment (WSU-NHL cell line; FIG. 1B, 5 nM gemcitabine 24 h after 48 h 1 mM valproic acid, normalized to untreated control cells): Especially significant effects
- effect on cell proliferation after valproic acid pretreatment (WSU-NHL cell line; FIG. 2B, 5 nM gemcitabine 48 h after 48 h 1 mM valproic acid, normalized to untreated control cells): Especially significant effects
- cell proliferation, combination with VPA ([1]; FIG. 4A, 25 nM gemcitabine 48 h after 48 h 1 mM VPA, normalized to 1/DMSO treated cells): killed all cancer cells

Structure (SMILES): CCCC(CCC)C(=O)O [valproic acid]
- effect of valproic acid pretreatment on cell proliferation (percent growth of treated cells) (WSU-NHL cell line; FIG. 1A, then 24 h treatment with bendamustine, gemcitabine or carboplatin, normalized to 1% DMSO treated cells): increased the effect of the 24 h treatment
- effect of valproic acid pretreatment on cell proliferation (percent growth of treated cells) (WSU-NHL cell line; FIG. 1B, then 24 h treatment with the respective compounds, normalized to untreated control cells): increased the effect of the 24 h treatment
- effect of valproic acid pretreatment on cell proliferation (percent growth of treated cells) (WSU-NHL cell line; FIG. 2A, then 48 h treatment with the respective compounds, normalized to 1/DMSO treated cells): increased the effect of the 48 h treatment
- effect of valproic acid pretreatment on cell proliferation (percent growth of treated cells) (WSU-NHL cell line; FIG. 2B, then 48 h treatment with the respective compounds, normalized to untreated control cells): increased the effect of the 48 h treatment
- effect of valproic acid pretreatment on cell proliferation (percent growth of treated cells) ([1]; FIG. 3A, then 24 h treatment with the respective compounds, normalized to 1% DMSO treated cells): increased the effect of the 24 h treatment
- effect of valproic acid pretreatment on cell proliferation (percent growth of treated cells) ([1]; FIG. 3B, then 24 h treatment with the respective compounds, normalized to untreated control cells): increased the effect of the 24 h treatment
- effect of valproic acid pretreatment on cell proliferation (percent growth of treated cells) ([1]; FIG. 4A, then 48 h treatment with the respective compounds, normalized to 1/DMSO treated cells): increased the effect of the 48 h treatment
- effect of valproic acid pretreatment on cell proliferation (percent growth of treated cells) ([1]; FIG. 4B, then 48 h treatment with the respective compounds, normalized to untreated control cells): increased the effect of the 48 h treatment
